Laboratory results: patent publication US11725036B2, “Modified lipidated relaxin B chain peptides and their therapeutic use” (Sanofi, priority 2018, dated 2023)
Converted amounts (≈) assume the structure as drawn. Where two headings read alike, the source gives them in different places. Starred links: 1 amine or outer side, 2 acyl side, 3 side chain; linkers in the order of their positions; H or OH if unused. Non-standard residues stand in square brackets, D forms with d. Residues, ends and D or L forms follow the SMILES beside them. Groups on a side chain read outwards from the residue. *: point of attachment. X1 = CCCCCCCCCCCCCCCC(=O)N[C@@H](CCC(=O)N[C@@H](CCC(=O)N[C@@H](CCC(=O)NCCCOCCOCCOCCCNC(=O)CCC(=O)NCCCOCCOCCOCCCNC(=O)CCC(=O)NCCCOCCOCCOCCCN*)C(=O)O)C(=O)O)C(=O)O; γGlu = O=C(O)[C@H](CCC(=O)[*:2])N[*:1]; Stearoyl = CCCCCCCCCCCCCCCCCC(=O)*; Suc = O=C(CCC(=O)[*:2])[*:1]; αMeK = C[C@](N)(CCCCN)C(=O)O; AEEA = NCCOCCOCC(=O)O; Aib = CC(C)(N)C(=O)O

Assays:
Stability in rat plasma = assay type: in vitro ADME; conditions: T = 0, 37° C., 5 μM
Protocol: (§1) Prior to the testing of stability in plasma (or blood) of a peptide batch, its purity (HPLC-UV) was determined.
(§2) Rat and Human plasma: anti-coagulant sodium or lithium heparin.
(§3) 100 μM solution of study compound in 50 mM phosphate buffer pH 7.4.
(§4) 950 μL plasma (or blood) was pre-incubated for 5 min at 37° C. 50 μL of compound stock solution was added. Final compound concentration=5 μM. Vortex and transfer 150 μL plasma (or blood) into an Eppendorf for each time point. The time points […] were carried out in duplicate for each species.
(§5) After incubation, 150 μL plasma (or blood) was extracted with 600 μL Acetonitrile containing 1% TFA. Said mixture was then vortexed and centrifuged 10 min at 14600 rpm. 200 μL supernatant was dried under N2. Sample was then reconstituted in 200 μL of H2O/CH3CN 98/2+0.1% FA+50 ng/ml Labetalol and analyzed using the analytical system used in solubility and stability studies.
(§6) For determination of the amount of the remaining peptide, the peak areas of the target compound at t0 and each time point […] were compared, resulting in “% remaining peptide”, following the equation: % remaining peptide=[(peak area peptide time)×100]/peak area peptide t0. The stability was expressed as “% remaining peptide”.

[1] = Stability in human plasma; assay type: in vitro ADME; conditions: T = 0, 37° C., 5 μM
Protocol: as §1, §2, §3, §4, §5, §6

RXFP1 = molecular target: T1, RXFP1 (Homo sapiens, UniProt Q9HBX9); experiment: OVCAR5 cAMP assay (HTRF); assay type: cell-based; conditions: for EC50: OVCAR 5 cells expressing endogenous RXFP1, cAMP readout; for Emax: OVCAR 5 cells, maximal cAMP relative to H2-relaxin
T1 construct: OVCAR5 cells expressing endogenous RXFP1; endogenous in cells; host or cells: OVCAR5
T1 sequence (Q9HBX9 1-757): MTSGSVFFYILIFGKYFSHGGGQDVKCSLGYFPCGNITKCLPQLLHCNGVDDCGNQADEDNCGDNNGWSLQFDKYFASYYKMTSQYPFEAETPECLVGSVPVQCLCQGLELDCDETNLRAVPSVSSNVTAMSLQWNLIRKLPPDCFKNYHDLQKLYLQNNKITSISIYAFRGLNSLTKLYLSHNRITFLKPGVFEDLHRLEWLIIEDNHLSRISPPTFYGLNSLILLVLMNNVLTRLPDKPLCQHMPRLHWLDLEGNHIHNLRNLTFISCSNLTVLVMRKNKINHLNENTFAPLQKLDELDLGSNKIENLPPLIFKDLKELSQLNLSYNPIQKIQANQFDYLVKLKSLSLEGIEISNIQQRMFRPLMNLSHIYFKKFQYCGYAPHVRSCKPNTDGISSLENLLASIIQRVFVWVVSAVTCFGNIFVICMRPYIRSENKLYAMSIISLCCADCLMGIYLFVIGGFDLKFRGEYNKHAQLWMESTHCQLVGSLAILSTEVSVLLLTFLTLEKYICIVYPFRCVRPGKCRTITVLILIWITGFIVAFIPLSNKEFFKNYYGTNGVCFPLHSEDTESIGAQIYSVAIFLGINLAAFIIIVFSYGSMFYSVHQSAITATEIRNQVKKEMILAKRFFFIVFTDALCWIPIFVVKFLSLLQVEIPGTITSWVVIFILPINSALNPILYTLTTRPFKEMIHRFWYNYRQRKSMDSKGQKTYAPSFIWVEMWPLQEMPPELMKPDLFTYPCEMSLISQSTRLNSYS
Outline: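 Peptide agonism measured as intracellular cAMP (HTRF) after 30 min at 37° C in serum-free medium, following 40 min 1 mM IBMX preincubation of OVCAR5 cells. Nonlinear regression gave EC50; Emax % = 100 × compound maximal cAMP / H2-relaxin maximal cAMP.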

[2] = Solubility testing in buffer; assay type: physicochemical; conditions: target solubility 10.0 mg/ml
Protocol: Prior to the testing of solubility of a peptide batch, its purity (HPLC-UV) was determined.
Acetate Buffer 50 mM pH4.5: 0.75 g C2H3C02Na,3H2O (Sigma S7545)+0.35 ml CH3CO2H 100% solution dissolved in Millipore water, adjusted to pH with diluted (1:1) CH3CO2H and diluted to 250 ml with Millipore water.
In a 4 ml Ependorph vial, an accurately weighed sample of compound was diluted in study media to obtain target concentration of 2, 6 or 10 mg/ml of pure compound. The sample vials were shacked (rock 'roll shaker) for ˜19 h. 300 μL aliquots were filtered through a Millipore “Solvinert” plate (0.45 μm-PTFE hydrophilic).
pH was measured with a micro electrode
Waters Acquity UPLC System with DAD detector
Column: Waters Peptide Column CSH C18 (130 Å; 1.7 μm; 50*2.1 mm)
Column temperature: 60° C.
Full loop (about 5 μL)—overfill factor 5
Weak et Strong wash: H2O/ACN (75/25; V/V); Seal wash: H2O/IsOH (95/5; V/V). Mobile phase:
Solvent A: 0.05% TFA in H2O; Solvent B: 0.035% TFA in CH3CN
Gradient: from 0 to 12 min B=2% to 60%, from 12 to 14 min B=60% to 100%. Column washing 100% B 1 min, column equilibration 2% B 2.5 min.
UV detector: wavelength: 220 nm.

[3] = acetate buffer 50 mM pH 4.5, read-out: Solubility Acetate buffer pH 4.5
[4] = phosphate buffer 50 mM pH 7.4, read-out: Solubility phosphate buffer pH 7.4

Compound | Rat plasma stability % remaining (Stability in rat plasma) [%] | Human Plasma stability % remaining [1] [%] | EC50 (RXFP1) [nM] | Emax (RXFP1) [%] | solubility [2, 3] [mg/mL] | solubility [2, 4] [mg/mL]
Ac-VIKLSGRELVRAQIAISGMSTWSKKKK-NH2 [KKKK(AcB7-29 C11.23S), reference compound] | 100 | 100 |  |  |  | 
CCCCCCCCCCCCCCCC(=O)N[C@@H](CCC(=O)N[C@@H](CCC(=O)N[C@@H](CCC(=O)NCCCOCCOCCOCCCNC(=O)CCC(=O)NCCCOCCOCCOCCCNC(=O)CCC(=O)NCCCOCCOCCOCCCNC(=O)CCC(=O)NCCCC[C@H](NC(=O)CNC(=O)[C@H](CCC(=O)O)NC(=O)C(C)(C)NC(=O)C(C)(C)NC(=O)[C@@H](NC(=O)[C@H](CCCCNC(C)=O)NC(=O)[C@H](C)NC(=O)[C@H](CCCNC(=N)N)NC(=O)[C@@H](NC(=O)[C@H](CCCCN)NC(=O)[C@H](CCC(=O)O)NC(=O)[C@H](CCCNC(=N)N)NC(=O)CNC(=O)[C@H](CCC(=O)O)NC(=O)[C@H](CC(C)C)NC(C)=O)C(C)C)[C@@H](C)CC)C(=O)N[C@@H](CO)C(=O)N[C@H](C(=O)N[C@@H](Cc1ccccc1)C(=O)NC(C)(C)C(=O)N[C@@H](CCCNC(=N)N)C(=O)N[C@@H](CCCNC(=N)N)C(=O)N[C@@H](C)C(=O)N[C@@H](CCCCNC(C)=O)C(N)=O)[C@@H](C)O)C(=O)O)C(=O)O)C(=O)O [compound 72] (Ac-LEGREKVRAK(Ac)I[Aib][Aib]EGK([Suc-X1])STF[Aib]RRAK(Ac)-NH2) |  |  | 0.56 | 91 | 8.25 (≈ 1890 µM) | 8.72 (≈ 1990 µM)
CCCCCCCCCCCCCCCCCC(=O)N[C@@H](CCC(=O)N[C@@H](CCC(=O)N[C@@H](CCC(=O)NCCOCCOCC(=O)NCCOCCOCC(=O)NCCOCCOCC(=O)NCCOCCOCC(=O)NCCCC[C@H](NC(=O)CNC(=O)[C@H](CCC(=O)O)NC(=O)C(C)(C)NC(=O)C(C)(C)NC(=O)[C@@H](NC(=O)[C@H](CCCCNC(C)=O)NC(=O)[C@H](C)NC(=O)[C@H](CCCNC(=N)N)NC(=O)[C@@H](NC(=O)[C@H](CCCCN)NC(=O)[C@H](CCC(=O)O)NC(=O)[C@H](CCCNC(=N)N)NC(=O)CNC(=O)[C@H](CCC(=O)O)NC(=O)[C@H](CC(C)C)NC(C)=O)C(C)C)[C@@H](C)CC)C(=O)N[C@@H](CO)C(=O)N[C@H](C(=O)N[C@@H](Cc1ccccc1)C(=O)N[C@@H](CO)C(=O)N[C@@](C)(CCCCN)C(=O)N[C@@H](CCCNC(=N)N)C(=O)N[C@@H](C)C(=O)N[C@@H](CCCCNC(C)=O)C(N)=O)[C@@H](C)O)C(=O)O)C(=O)O)C(=O)O [compound 26] (Ac-LEGREKVRAK(Ac)I[Aib][Aib]EGK([AEEA-AEEA-AEEA-AEEA-γGlu-γGlu-γGlu-Stearoyl])STFS[αMeK]RAK(Ac)-NH2) |  |  | 0.43 | 96 | 6.68 (≈ 1640 µM) | 6.76 (≈ 1660 µM)
CCCCCCCCCCCCCCCC(=O)N[C@@H](CCC(=O)N[C@@H](CCC(=O)N[C@@H](CCC(=O)NCCCOCCOCCOCCCNC(=O)CCC(=O)NCCCOCCOCCOCCCNC(=O)CCC(=O)NCCCOCCOCCOCCCNC(=O)CCC(=O)NCCCC[C@H](NC(=O)CNC(=O)[C@H](CCC(=O)O)NC(=O)C(C)(C)NC(=O)C(C)(C)NC(=O)[C@@H](NC(=O)[C@H](CCCCNC(C)=O)NC(=O)[C@H](C)NC(=O)[C@H](CCCNC(=N)N)NC(=O)[C@@H](NC(=O)[C@H](Cc1ccccc1)NC(=O)[C@H](CCC(=O)O)NC(=O)[C@H](CCCNC(=N)N)NC(=O)CNC(=O)[C@H](CCC(=O)O)NC(=O)[C@H](CC(C)C)NC(C)=O)C(C)C)[C@@H](C)CC)C(=O)N[C@@H](CO)C(=O)N[C@H](C(=O)N[C@@H](Cc1ccccc1)C(=O)N[C@@H](CO)C(=O)N[C@@](C)(CCCCN)C(=O)N[C@@H](CCCNC(=N)N)C(=O)N[C@@H](C)C(=O)N[C@@H](CCCCNC(C)=O)C(N)=O)[C@@H](C)O)C(=O)O)C(=O)O)C(=O)O [compound 24] (Ac-LEGREFVRAK(Ac)I[Aib][Aib]EGK([Suc-X1])STFS[αMeK]RAK(Ac)-NH2) |  |  | 36.4 | 100 | 0.28 (≈ 63.9 µM) | 6.93 (≈ 1580 µM)
